Assay results as given in publication PMC11012124, “Synthesis of Novel Triazine-Based Chalcones and 8,9-dihydro-7H-pyrimido[4,5-b][1,4]diazepines as Potential Leads in the Search of Anticancer, Antibacterial and Antifungal Agents” (International Journal of Molecular Sciences, 2024).

Legend:
[1] = system: IGROV1; assay: cells; conditions: Homo sapiens, IGROV-1, 48 h
[2] = system: OVCAR-5; assay: cells; conditions: Homo sapiens, OVCAR-5, 48 h; for CC50: read-out: LC50
[3] = system: RPMI-8226; assay: cells; conditions: Homo sapiens, RPMI-8226, 48 h
[4] = system: TK-10; assay: cells; conditions: Homo sapiens, TK-10, 48 h; for CC50: read-out: LC50
[5] = system: MDA-MB-231/ATCC; assay: cells; conditions: Homo sapiens, MDA-MB-231, 48 h
[6] = system: SW-620; assay: cells; conditions: Homo sapiens, SW-620, 48 h; for CC50: read-out: LC50
[7] = system: BT-549; assay: cells; conditions: Homo sapiens, BT-549, 48 h; for CC50: read-out: LC50
[8] = system: HOP-92; assay: cells; conditions: Homo sapiens, HOP-92, 48 h; for CC50: read-out: LC50
[9] = system: UACC-257; assay: cells; conditions: Homo sapiens, UACC-257, 48 h; for CC50: read-out: LC50
[10] = system: HS 578T; assay: cells; conditions: Homo sapiens, 48 h; for CC50: read-out: LC50
[11] = system: NCI-H226; assay: cells; conditions: Homo sapiens, NCI-H226, 48 h; for CC50: read-out: LC50
[12] = system: HL-60(TB); assay: cells; conditions: Homo sapiens, HL-60, 48 h; for CC50: read-out: LC50
[13] = system: SN12C; assay: cells; conditions: Homo sapiens, 48 h
[14] = Hemolytic activity, spectrophotometric; format: cell-based, human; conditions: human, human red blood cells (huRBC), 5% hematocrit, 200 μg/mL, 37 °C
[15] = system: A549/ATCC; assay: cells; conditions: Homo sapiens, A549, 48 h; for CC50: read-out: LC50
[16] = system: ACHN; assay: cells; conditions: Homo sapiens, 48 h; for CC50: read-out: LC50
[17] = system: CCRF-CEM; assay: cells; conditions: Homo sapiens, 48 h; for CC50: read-out: LC50
[18] = system: MALME-3M; assay: cells; conditions: Homo sapiens, 48 h
[19] = system: HCT-116; assay: cells; conditions: Homo sapiens, HCT-116, 48 h; for CC50: read-out: LC50
[20] = system: OVCAR-8; assay: cells; conditions: Homo sapiens, OVCAR-8, 48 h; for CC50: read-out: LC50
[21] = system: MOLT-4; assay: cells; conditions: Homo sapiens, MOLT-4, 48 h; for CC50: read-out: LC50
[22] = system: PC-3; assay: cells; conditions: Homo sapiens, PC-3, 48 h
[23] = system: A498; assay: cells; conditions: Homo sapiens, A498, 48 h; for CC50: read-out: LC50
[24] = system: SNB-75; assay: cells; conditions: Homo sapiens, SNB-75, 48 h; for CC50: read-out: LC50
[25] = system: K-562; assay: cells; conditions: Homo sapiens, K562, 48 h; for GI50: K-562, 48 h; for CC50: read-out: LC50
[26] = system: HCC-2998; assay: cells; conditions: Homo sapiens, HCC 2998, 48 h; for CC50: read-out: LC50
[27] = system: LOX IMVI; assay: cells; conditions: Homo sapiens, 48 h
[28] = system: RXF 393; assay: cells; conditions: Homo sapiens, RXF 393, 48 h; for CC50: read-out: LC50
[29] = system: NCI-H460; assay: cells; conditions: Homo sapiens, NCI-H460, 48 h; for CC50: read-out: LC50
[30] = system: EKVX; assay: cells; conditions: Homo sapiens, 48 h; for CC50: read-out: LC50
[31] = system: SK-OV-3; assay: cells; conditions: Homo sapiens, SK-OV-3, 48 h; for CC50: read-out: LC50
[32] = system: MDA-MB-435; assay: cells; conditions: Homo sapiens, MDA-MB-435, 48 h; for CC50: read-out: LC50
[33] = system: M14; assay: cells; conditions: Homo sapiens, M14, 48 h; for CC50: read-out: LC50
[34] = system: SK-MEL-28; assay: cells; conditions: Homo sapiens, SK-MEL-28, 48 h; for CC50: read-out: LC50
[35] = system: 60 cancer cell lines; assay: NCI-60 one-dose screen (10 μM); format: cell-based; conditions: Homo sapiens; one dose of 10 μM, mean over 60 cancer cell lines; read-out: Mean Growth Percent (MGP)
From the text: Additionally, the mean of the growth percentages (MGP) of each compound against all the 60 cancer cell lines is also reported, which is used as one of the selection criteria to continue with tests at five concentration doses.

[36] = system: MCF7; assay: cells; conditions: Homo sapiens, MCF7, 48 h
[37] = system: SF-539; assay: cells; conditions: Homo sapiens, SF-539, 48 h; for CC50: read-out: LC50, SF-539, 48 h

Q: What does the source list for `Nc1nc(N)c2c(n1)NC(c1ccc(Cl)cc1)CC(c1ccc(Nc3nc(NCCO)nc(Nc4ccc(Cl)cc4)n3)cc1)=N2` (stereo not drawn) [33e]?
A: GI50 [1]: 1710 nM; CC50 ([1]; read-out: LC50): 7460 nM; GI50 [2]: 4480 nM; CC50 [2]: 74000 nM; GI50 [3]: 1440 nM; GI50 [4]: 10600 nM; CC50 [4]: 60400 nM; GI50 [5]: 1750 nM; CC50 ([5]; read-out: LC50): 8820 nM; GI50 [6]: 1620 nM; CC50 [6]: 6720 nM; GI50 [7]: 2250 nM; CC50 [7]: 23500 nM; GI50 [8]: 1290 nM; CC50 [8]: 7540 nM; GI50 [9]: 1910 nM; CC50 [9]: 7320 nM; GI50 [10]: 2220 nM; CC50 [10]: > 100000 nM; GI50 [11]: 6470 nM; CC50 [11]: > 100000 nM; GI50 [12]: 1150 nM; CC50 [12]: > 100000 nM; GI50 [13]: 1950 nM; hemolysis at 24 h, 200 µg/mL [14]: 1.2%; GI50 [15]: 4120 nM; CC50 [15]: > 100000 nM; GI50 [16]: 4690 nM; CC50 [16]: > 100000 nM; GI50 [17]: 1140 nM; CC50 [17]: > 100000 nM; GI50 [18]: 1750 nM; GI50 [19]: 1400 nM; CC50 [19]: 5190 nM; GI50 [20]: 1570 nM; CC50 [20]: 6810 nM; GI50 [21]: 790 nM; CC50 [21]: > 100000 nM; GI50 [22]: 1930 nM; CC50 ([22]; read-out: LC50): > 100000 nM; GI50 [23]: 5900 nM; CC50 [23]: 44500 nM; GI50 [24]: 1590 nM; CC50 [24]: 9940 nM; GI50 [25]: 710 nM; CC50 [25]: > 100000 nM; GI50 [26]: 1440 nM; CC50 [26]: 5360 nM; GI50 [27]: 1450 nM; CC50 ([27]; read-out: LC50, LOX IMVI, 48 h): 5630 nM; GI50 [28]: 1540 nM; CC50 [28]: 5730 nM; GI50 [29]: 1720 nM; CC50 [29]: 6420 nM; GI50 [30]: 2010 nM; CC50 [30]: 28700 nM; GI50 [31]: 14800 nM; CC50 [31]: 58300 nM; GI50 [32]: 1630 nM; CC50 [32]: 6200 nM; GI50 [33]: 1900 nM; CC50 [33]: 10500 nM; GI50 [34]: 1730 nM; CC50 [34]: 5610 nM; activity at 10 µM [35]: 30.5%; GI50 [36]: 1200 nM; CC50 ([36]; read-out: LC50): 5470 nM; GI50 [37]: 1680 nM; CC50 [37]: 6560 nM

Q: With `Nc1nc(N)c2c(n1)NC(c1ccc(C(F)(F)F)cc1)CC(c1ccc(Nc3nc(NCCO)nc(Nc4ccc(Cl)cc4)n3)cc1)=N2` (stereo not drawn) [33g] as the molecule, how does the GI50 [1] read?
A: 1370 nM

Q: And the GI50 [2]?
A: 1600 nM

Q: What about the CC50 [2] of the same molecule?
A: 5640 nM

Q: And the GI50 [3]?
A: 1510 nM

Q: And the CC50 ([3]; read-out: LC50)?
A: > 100000 nM

Q: And the GI50 [4]?
A: 1780 nM

Q: And the CC50 [4]?
A: 5630 nM

Q: What about the GI50 [5] of the same molecule?
A: 1880 nM

Q: And the GI50 [6]?
A: 1600 nM

Q: And the CC50 [6]?
A: 7040 nM

Q: And the GI50 [7]?
A: 1570 nM

Q: What about the CC50 [7] of the same molecule?
A: 6340 nM

Q: What about the GI50 [8] of the same molecule?
A: 1480 nM

Q: What about the CC50 [8] of the same molecule?
A: 7940 nM

Q: What about the GI50 [9] of the same molecule?
A: 1750 nM

Q: What about the CC50 [9] of the same molecule?
A: 5820 nM

Q: What about the GI50 [10] of the same molecule?
A: 2550 nM

Q: What about the CC50 [10] of the same molecule?
A: > 100000 nM

Q: And the GI50 [11]?
A: 1840 nM

Q: And the CC50 [11]?
A: 8310 nM

Q: What about the GI50 [12] of the same molecule?
A: 1280 nM

Q: And the CC50 [12]?
A: > 100000 nM

Q: What about the GI50 [13] of the same molecule?
A: 1760 nM

Q: What about the CC50 ([13]; read-out: LC50) of the same molecule?
A: 6350 nM

Q: What about the hemolysis at 24 h, 200 µg/mL [14] of the same molecule?
A: 22%

Q: What about the GI50 [15] of the same molecule?
A: 1730 nM

Q: And the CC50 [15]?
A: 7080 nM

Q: What about the GI50 [16] of the same molecule?
A: 1500 nM

Q: And the CC50 [16]?
A: 5310 nM

Q: And the GI50 [17]?
A: 1230 nM

Q: What about the CC50 [17] of the same molecule?
A: > 100000 nM

Q: And the GI50 [18]?
A: 1740 nM

Q: And the GI50 [19]?
A: 1050 nM

Q: And the CC50 [19]?
A: 5540 nM

Q: What about the GI50 [20] of the same molecule?
A: 1500 nM

Q: What about the CC50 [20] of the same molecule?
A: 5750 nM

Q: What about the GI50 [21] of the same molecule?
A: 888 nM

Q: And the CC50 [21]?
A: > 100000 nM

Q: And the GI50 [22]?
A: 1540 nM

Q: What about the GI50 [23] of the same molecule?
A: 1560 nM

Q: What about the CC50 [23] of the same molecule?
A: 5400 nM

Q: And the GI50 [24]?
A: 1700 nM

Q: And the CC50 [24]?
A: 9060 nM

Q: And the GI50 [25]?
A: 642 nM

Q: What about the CC50 [25] of the same molecule?
A: > 100000 nM

Q: And the GI50 [26]?
A: 1310 nM

Q: What about the CC50 [26] of the same molecule?
A: 5250 nM

Q: And the GI50 [27]?
A: 1770 nM

Q: And the GI50 [28]?
A: 1140 nM

Q: And the CC50 [28]?
A: 5480 nM

Q: And the GI50 [29]?
A: 1960 nM

Q: What about the CC50 [29] of the same molecule?
A: 8230 nM

Q: And the GI50 [30]?
A: 1520 nM

Q: What about the CC50 [30] of the same molecule?
A: 5750 nM

Q: What about the GI50 [31] of the same molecule?
A: 1830 nM

Q: What about the CC50 [31] of the same molecule?
A: 6520 nM

Q: And the GI50 [32]?
A: 1400 nM

Q: What about the CC50 [32] of the same molecule?
A: 5300 nM

Q: What about the GI50 [33] of the same molecule?
A: 1640 nM

Q: And the CC50 [33]?
A: 5720 nM

Q: And the GI50 [34]?
A: 1530 nM

Q: And the CC50 [34]?
A: 5370 nM

Q: What about the activity at 10 µM [35] of the same molecule?
A: -44.8%

Q: What about the GI50 [36] of the same molecule?
A: 1260 nM

Q: What about the GI50 [37] of the same molecule?
A: 1560 nM

Q: And the CC50 [37]?
A: 5680 nM
